Measured values: patent US20230143596A1, “PESTICIDALLY ACTIVE DIAZINE-BISAMIDE COMPOUNDS” (SYNGENTA CROP PROTECTION AG, priority 2020, published 2023)

Experiments:
Chilo suppressalis = assay: Example B3: Chilo suppressalis (striped rice stemborer), artificial diet; format: in vivo; conditions: 144 h, application rate 200 ppm, L2 larvae, 6 days after infestation, vs untreated, read-out: control in at least one of the three categories (mortality, anti-feedant effect, or growth inhibition)
Procedure: Example B3: Chilo suppressalis (Striped Rice Stemborer)
24-well microtiter plates with artificial diet were treated with aqueous test solutions prepared from 10′000 ppm DMSO stock solutions by pipetting. After drying, the plates were infested with L2 larvae (6-8 per well). The samples were assessed for mortality, anti-feeding effect, and growth inhibition in comparison to untreated samples 6 days after infestation. Control of Chilo suppressalis by a test sample is given when at least one of the categories mortality, anti-feedant effect, and growth inhibition is higher than the untreated sample.

Euschistus heros = assay: Example B2: Euschistus heros (neotropical brown stink bug), soybean leaves sprayed; format: in vivo; conditions: 120 h, application rate 200 ppm, N2 nymphs, 5 days after infestation, vs untreated, read-out: control in at least one of the two categories (mortality or growth inhibition)
Procedure: Example B2: Euschistus heros (Neotropical Brown Stink Bug)
Soybean leaves on agar in 24-well microtiter plates were sprayed with aqueous test solutions prepared from 10′000 ppm DMSO stock solutions. After drying the leaves were infested with N2 nymphs. The samples were assessed for mortality and growth inhibition in comparison to untreated samples 5 days after infestation.
(§1) The following compounds gave an effect of at least 80% control in at least one of the two categories (mortality or growth inhibition) at an application rate of 200 ppm: […]

Diabrotica balteata = assay: Example B1: Diabrotica balteata (corn root worm), maize sprouts sprayed; format: in vivo; conditions: 96 h, application rate 200 ppm, L2 larvae, 4 days after infestation, vs untreated, read-out: control in at least one of the two categories (mortality or growth inhibition)
Procedure: Example B1: Diabrotica balteata (Corn Root Worm)
Maize sprouts placed onto an agar layer in 24-well microtiter plates were treated with aqueous test solutions prepared from 10′000 ppm DMSO stock solutions by spraying. After drying, the plates were infested with L2 larvae (6 to 10 per well). The samples were assessed for mortality and growth inhibition in comparison to untreated samples 4 days after infestation.
as §1

Spodoptera littoralis = assay: Example B6: Spodoptera littoralis (Egyptian cotton leaf worm), cotton leaf discs sprayed; format: in vivo; conditions: foliar, 72 h, application rate 200 ppm, L1 larvae, 3 days after infestation, vs untreated, read-out: control in at least one of the three categories (mortality, anti-feedant effect, or growth inhibition)
Procedure: Example B6: Spodoptera littoralis (Egyptian Cotton Leaf Worm)
Cotton leaf discs were placed onto agar in 24-well microtiter plates and sprayed with aqueous test solutions prepared from 10′000 ppm DMSO stock solutions. After drying the leaf discs were infested with five L1 larvae. The samples were assessed for mortality, anti-feeding effect, and growth inhibition in comparison to untreated samples 3 days after infestation. Control of Spodoptera littoralis by a test sample is given when at least one of the categories mortality, anti-feedant effect, and growth inhibition is higher than the untreated sample.

Plutella xylostella = assay: Example B4: Plutella xylostella (diamond back moth), artificial diet; format: in vivo; conditions: 192 h, application rate 200 ppm, eggs, 8 days after infestation, vs untreated, read-out: control in at least one of the two categories (mortality or growth inhibition)
Procedure: Example B4: Plutella xylostella (Diamond Back Moth)
24-well microtiter plates with artificial diet were treated with aqueous test solutions prepared from 10′000 ppm DMSO stock solutions by pipetting. After drying, Plutella eggs were pipetted through a plastic stencil onto a gel blotting paper and the plate was closed with it. The samples were assessed for mortality and growth inhibition in comparison to untreated samples 8 days after infestation. The following compounds gave an effect of at least 80% control in at least one of the two categories (mortality or growth inhibition) at an application rate of 200 ppm: […]

| SMILES | melting point [°C] | further results |
| --- | --- | --- |
| CCNC(=O)c1nccnc1C(C)NC(=O)c1cc(C(F)(F)F)cc(C(F)(F)F)c1 (stereo not shown) [Compound P1, 3-[1-[[3,5-bis(trifluoromethyl)benzoyl]amino]ethyl]-N-ethyl-pyrazine-2-carboxamide] | – | percent control (mortality, anti-feedant effect or growth inhibition) at 200 ppm (Chilo suppressalis): ≥ 80%; percent control (mortality or growth inhibition) at 200 ppm (Euschistus heros): ≥ 80%; percent control (mortality or growth inhibition) at 200 ppm (Diabrotica balteata): ≥ 80%; percent control (mortality, anti-feedant effect or growth inhibition) at 200 ppm (Spodoptera littoralis): ≥ 80%; percent control (mortality or growth inhibition) at 200 ppm (Plutella xylostella): ≥ 80% |
| CCCCNC(=O)c1nccnc1C(C)NC(=O)c1cc(C(F)(F)F)cc(C(F)(F)F)c1 (stereo not shown) [Compound P3, 3-[1-[[3,5-bis(trifluoromethyl)benzoyl]amino]ethyl]-N-butyl-pyrazine-2-carboxamide] | – | percent control (mortality, anti-feedant effect or growth inhibition) at 200 ppm (Chilo suppressalis): ≥ 80% |
| CC(NC(=O)c1cc(C(F)(F)F)cc(C(F)(F)F)c1)c1nccnc1C(=O)NC1CC1 (stereo not shown) [Compound P5, 3-[1-[[3,5-bis(trifluoromethyl)benzoyl]amino]ethyl]-N-cyclopropyl-pyrazine-2-carboxamide] | – | percent control (mortality, anti-feedant effect or growth inhibition) at 200 ppm (Chilo suppressalis): ≥ 80%; percent control (mortality, anti-feedant effect or growth inhibition) at 200 ppm (Spodoptera littoralis): ≥ 80%; percent control (mortality or growth inhibition) at 200 ppm (Plutella xylostella): ≥ 80% |
| C=CCNC(=O)c1nccnc1C(C)NC(=O)c1cc(C(F)(F)F)cc(C(F)(F)F)c1 (stereo not shown) [Compound P6, N-allyl-3-[1-[[3,5-bis(trifluoromethyl)benzoyl]amino]ethyl]pyrazine-2-carboxamide] | – | percent control (mortality, anti-feedant effect or growth inhibition) at 200 ppm (Chilo suppressalis): ≥ 80%; percent control (mortality or growth inhibition) at 200 ppm (Plutella xylostella): ≥ 80% |
| CCCNC(=O)c1nccnc1C(C)NC(=O)c1cc(C(F)(F)F)cc(C(F)(F)F)c1 (stereo not shown) [P.2, 3-[1-[[3,5-bis(trifluoromethyl)benzoyl]amino]ethyl]-N-propyl-pyrazine-2-carboxamide] | 127 | – |
| COCCNC(=O)c1nccnc1C(C)NC(=O)c1cc(C(F)(F)F)cc(C(F)(F)F)c1 (stereo not shown) [P.4, 3-[1-[[3,5-bis(trifluoromethyl)benzoyl]amino]ethyl]-N-(2-methoxyethyl)pyrazine-2-carboxamide] | 128 | – |
| CC(NC(=O)c1cc(C(F)(F)F)cc(C(F)(F)F)c1)c1nccnc1C(=O)Nc1ncccn1 (stereo not shown) [P.7, 3-[1-[[3,5-bis(trifluoromethyl)benzoyl]amino]ethyl]-N-pyrimidin-2-yl-pyrazine-2-carboxamide] | 201 | – |
| CCNC(=O)c1nccnc1C(C)NC(=O)c1cc(OCC(F)(F)F)cc(C(F)(F)F)c1 (stereo not shown) [P.8, N-ethyl-3-[1-[[3-(2,2,2-trifluoroethoxy)-5-(trifluoromethyl)benzoyl]amino]ethyl]pyrazine-2-carboxamide] | 136 | – |
| CCNC(=O)c1nccnc1C(C)NC(=O)c1cc(OCC(F)F)cc(C(F)(F)F)c1 (stereo not shown) [P.9, 3-[1-[[3-(2,2-difluoroethoxy)-5-(trifluoromethyl)benzoyl]amino]ethyl]-N-ethyl-pyrazine-2-carboxamide] | 134 | – |
| CC(NC(=O)c1cc(C(F)(F)F)cc(C(F)(F)F)c1)c1nccnc1C(=O)Nc1ccc(C#N)cn1 (stereo not shown) [P.10, 3-[1-[[3,5-bis(trifluoromethyl)benzoyl]amino]ethyl]-N-(5-cyano-2-pyridyl)pyrazine-2-carboxamide] | 215 | – |
| CC(NC(=O)c1cc(C(F)(F)F)cc(C(F)(F)F)c1)c1nccnc1C(=O)NCC#N (stereo not shown) [P.11, 3-[1-[[3,5-bis(trifluoromethyl)benzoyl]amino]ethyl]-N-(cyanomethyl)pyrazine-2-carboxamide] | 193 | – |
| CC(NC(=O)c1cc(C(F)(F)F)cc(C(F)(F)F)c1)c1nccnc1C(=O)Nc1ccc(C#N)cc1 (stereo not shown) [P.12, 3-[1-[[3,5-bis(trifluoromethyl)benzoyl]amino]ethyl]-N-(4-cyanophenyl)pyrazine-2-carboxamide] | 241 | – |
| CCN(C)C(=O)c1nccnc1C(C)NC(=O)c1cc(C(F)(F)F)cc(C(F)(F)F)c1 (stereo not shown) [P.13, 3-[1-[[3,5-bis(trifluoromethyl)benzoyl]amino]ethyl]-N-ethyl-N-methyl-pyrazine-2-carboxamide] | 75 | – |
| CC(NC(=O)c1cc(C(F)(F)F)cc(C(F)(F)F)c1)c1nccnc1C(=O)N1CCOCC1 (stereo not shown) [P.14, N-[1-[3-(morpholine-4-carbonyl)pyrazin-2-yl]ethyl]-3,5-bis(trifluoromethyl)benzamide] | 81 | – |
| CC(NC(=O)c1cc(C(F)(F)F)cc(C(F)(F)F)c1)c1nccnc1C(=O)NC(C)(C)C#N (stereo not shown) [P.15, 3-[1-[[3,5-bis(trifluoromethyl)benzoyl]amino]ethyl]-N-(1-cyano-1-methyl-ethyl)pyrazine-2-carboxamide] | 195 | – |

Now from value to compound, other results behind:

| melting point [°C] | SMILES | further results |
| --- | --- | --- |
| 123 | CC(NC(=O)c1cc(C(F)(F)F)cc(C(F)(F)F)c1)c1nccnc1C(=O)NC1(C#N)CC1 (stereo not shown) [P.16, 3-[1-[[3,5-bis(trifluoromethyl)benzoyl]amino]ethyl]-N-(1-cyanocyclopropyl)pyrazine-2-carboxamide] | – |
| 132 | COCC(C)(C)NC(=O)c1nccnc1C(C)NC(=O)c1cc(C(F)(F)F)cc(C(F)(F)F)c1 (stereo not shown) [P.17, 3-[1-[[3,5-bis(trifluoromethyl)benzoyl]amino]ethyl]-N-(2-methoxy-1,1-dimethyl-ethyl)pyrazine-2-carboxamide] | – |
| 127 | COCC(C)NC(=O)c1nccnc1C(C)NC(=O)c1cc(C(F)(F)F)cc(C(F)(F)F)c1 (stereo not shown) [P.18, 3-[1-[[3,5-bis(trifluoromethyl)benzoyl]amino]ethyl]-N-(2-methoxy-1-methyl-ethyl)pyrazine-2-carboxamide] | – |
| 164 | CNC(=O)c1nccnc1C(C)NC(=O)c1cc(C(F)(F)F)cc(C(F)(F)F)c1 (stereo not shown) [P.19, 3-[1-[[3,5-bis(trifluoromethyl)benzoyl]amino]ethyl]-N-methyl-pyrazine-2-carboxamide] | – |
| 68 | CC(NC(=O)c1cc(C(F)(F)F)cc(C(F)(F)F)c1)c1nccnc1C(=O)NC1COC1 (stereo not shown) [P.20, 3-[1-[[3,5-bis(trifluoromethyl)benzoyl]amino]ethyl]-N-(oxetan-3-yl)pyrazine-2-carboxamide] | – |
| 156 | CC(NC(=O)c1cc(C(F)(F)F)cc(C(F)(F)F)c1)c1nccnc1C(=O)NCCC#N (stereo not shown) [P.21, 3-[1-[[3,5-bis(trifluoromethyl)benzoyl]amino]ethyl]-N-(2-cyanoethyl) pyrazine-2-carboxamide] | – |
